Read-outs that look alike come from different tables or passages of the source.

The subject of assay [1] is cultures enriched in astrocytes. Conditions: added to in vitro cultures; cited from earlier work.
For assay [2], the system named is TNF. To be noted: Goebel et al. 2000; cited from earlier work.
In assay [3] the test system is CD patients. Conditions: Kast 1998; cited from earlier work.
The subject of assay [4] is TNF. Conditions: different experimental models; cited from earlier work.
Assay [5] deals with BALB/c mice. Nature of the assay: LPS-induced shock model: survival and signs of endotoxemia after lethal LPS challenge. The assay is classed as in vivo. As to the method:
Male BALB/c mice were injected with 11, 33 or 100 mg/kg of bupropion or with placebo i.p. in saline 1 h before challenge with 600 μg of E. coli LPS (Sigma, St. Louis, Mo.) by i.p. route. Mice were sacrificed 90 min for detection of cytokines in the serum by sandwich ELISA. Values represent the means±SEM of 5 mice per group. * P<0.05.
BALB/c mice were injected intraperitoneally (i.p.) with bupropion or placebo 1 h prior to i.p. injection of LPS (600 ug/mouse).
Male, 6 weeks old BALB/c mice were used in LPS-induced shock experiments. All mice were raised and maintained at the animal facilities at the Goncalo Moniz Research Center-FIOCRUZ, and provided with rodent diet and water ad libitum. Animal numbers in experimental groups were the minimum necessary to permit statistical analysis. All animals were sacrificed under anaesthesia.
In some experiments, groups of mice received i.p. injection of propranolol (1 mg/Kg), SCH23390 (25 μg/kg) and sulpiride (25 mg/Kg) 1 h prior to injection of bupropion. […] To determine serum TNF, IL-1 beta and IL-10 levels, mice were sacrificed 90 min after injection of LPS and bled by axilar vein puncture. Levels of IFN-gamma and nitric oxide were assayed using sera of mice sacrificed 4 h after LPS injection. Platelet and leukocyte cell counts were performed using blood collected with EDTA after 4 h of LPS challenge, using an automated cell counter (ADVIA 60, Bayer).

Assay [6] has as its system TNF. To be noted: in vivo LPS-induced model; cited from earlier work.
The subject of assay [7] is Crohn's patients with fistulas. To be noted: cited from earlier work.
The subject of assay [8] is patients with Crohn's disease. Conditions: cited from earlier work.

With `NCCc1ccc(O)c(O)c1` [dopamine], the “LPS-stimulated TNF production” value in assay [1] is reported as “significantly blunted”.

Take `CC(C)NCC(O)c1ccc(O)c(O)c1` (stereo not drawn) [isoproteronol]: the TNF levels entry in assay [2] was “lower TNF levels”. Moreover, the “LPS-stimulated TNF production” value in assay [1] is reported as “significantly blunted”.

With `NC[C@H](O)c1ccc(O)c(O)c1` [noradrenaline], in assay [1], the “LPS-stimulated TNF production” value was “significantly blunted”.

Consider `NNCCc1ccccc1` [phenelzine], for which, in assay [3], the CD remission result was “CD remission”.

Take `COc1ccc(C2CNC(=O)C2)cc1OC1CCCC1` (stereo not drawn) [rolipram]: the TNF levels entry in assay [4] was “lower TNF levels”.

For `CCN1CCCC1CNC(=O)c1cc(S(N)(=O)=O)ccc1OC` (stereo not drawn) [sulpiride], the “effect of antagonist on bupropion mediated survival / protection” value in assay [5] (antagonist i.p. 1 h prior to bupropion (propranolol 1 mg/Kg, SCH23390 25 μg/kg, sulpiride 25 mg/Kg), lethal LPS) is listed as “did not interfere”. In assay [5] (without bupropion, propranolol 1 mg/Kg, SCH23390 25 μg/kg, sulpiride 25 mg/Kg i.p.), the “protection from lethal LPS challenge by the antagonist alone” value was “partial protection”. The TNF levels result in assay [6] is “lowered TNF levels”.

For the molecule “Remicaid: new drug given early FDA approval for Crohn's patients with fistulas”, the “patients with complete remission” value in assay [7] (another study) was 48%. The “patients in whom half of the fistulas closed” value in assay [7] (one study) was 68%.

Regarding bromocryptine, the TNF levels entry in assay [6] was “lowered TNF levels”.

Consider “infliximab: monoclonal antibody acting against TNF-alpha, for moderate to severe Crohn's disease”, for which the patients in remission in assay [8] (four weeks after medication, placebo 4 percent) is 33%. In addition, the “share of patients with a 50 percent reduction in fistula drainage” value in assay [8] (second study, active fistulas, three doses two weeks apart) is recorded as “two-thirds”. The “share of the patients' fistulas closed” value in assay [8] (second study, active fistulas) is reported as “over half”.

The values are drawn from patent US20060173080A1, “Methods of modulating TNF using bupropion” (The Regents of the University of California, priority 2002, published 2006).
